From patent publication US20230096028A1, “BICYCLIC HETEROCYCLYL COMPOUNDS AND USES THEREOF” (Revolution Medicines, Inc., priority 2019, published 2023)
Like-named read-outs stand apart in the source and are kept apart here.

Legend:
[1] = target: T1, SOS1 catalytic domain (residues 564-1049) (Homo sapiens, UniProt Q07889); assay: Mode of Action Assay: inhibition of SOS1 nucleotide exchange activity (SOS1 TR-FRET IC50 Assay)
T1 sequence (Q07889 564-1049): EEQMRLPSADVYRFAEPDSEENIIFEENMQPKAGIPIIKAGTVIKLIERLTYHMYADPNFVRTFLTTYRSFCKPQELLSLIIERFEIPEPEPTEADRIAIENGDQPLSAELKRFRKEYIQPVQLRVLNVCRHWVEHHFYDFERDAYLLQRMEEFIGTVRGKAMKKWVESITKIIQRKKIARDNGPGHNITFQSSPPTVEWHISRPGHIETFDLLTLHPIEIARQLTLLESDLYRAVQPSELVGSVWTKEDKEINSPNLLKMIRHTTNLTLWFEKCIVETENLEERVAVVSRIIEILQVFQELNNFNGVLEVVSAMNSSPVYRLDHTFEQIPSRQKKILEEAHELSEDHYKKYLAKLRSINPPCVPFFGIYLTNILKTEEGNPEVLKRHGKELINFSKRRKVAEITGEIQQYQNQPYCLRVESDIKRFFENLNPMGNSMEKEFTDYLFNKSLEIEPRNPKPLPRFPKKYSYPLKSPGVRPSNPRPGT

[2] = tested on: PC-9 cells (EGFR Ex19Del); assay: Potency Assay: pERK (SOS1 pERK IC50 Assay, AlphaLISA SureFire Ultra p-ERK1/2); type: cell-based; conditions: Homo sapiens, read-out: SOS1 pERK IC50
Method in brief: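 Cellular pERK1/2 by AlphaLISA SureFire Ultra after 1 h compound exposure (37° C., highest concentration 10 μM, 3-fold steps, duplicates) of EGFR Ex19Del PC-9 cells seeded the day before. A 4-parameter fit of signal versus log concentration gives IC50.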

[3] = target: T1, SOS1 catalytic domain (residues 564-1049); assay: Potency Assay: binding affinity to SOS1 using Surface Plasmon Resonance (SPR); set-up: SOS1 catalytic domain (residues 564-1049) immobilized on a sensor chip; conditions: immobilized SOS1 catalytic domain (residues 564-1049), read-out: SOS1 SPR Equilibrium Kd
Method in brief: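 Kd was obtained by plotting binding response, taken just before association ended, versus compound concentration on a Biacore 8K. Compounds flowed at 50 μL/min over streptavidin-captured avi-SOS1 catalytic domain (~6000 RU), followed by buffer dissociation; HEPES 0.01 M/NaCl 0.15 M/0.05% P20 buffer, double-referenced.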

[4] = PC-9 cells (EGFR Ex19Del), 1 hour incubation, AlphaLISA p-ERK1/2

SMILES	IC50 [1]	IC50 [2, 4]	Kd [3]	IC50 ([2]; PC-9, 1 h)
C[C@@H](Nc1nc(C#N)nc2c1CN(C(=O)N1CCOCC1)C2)c1cc(N)cc(C(F)(F)F)c1 [Example 123, 4-{[(1R)-1-[3-amino-5-(trifluoromethyl)phenyl]ethyl]amino}-6-(morpholine-4-carbonyl)-5H,6H,7H-pyrrolo[3,4-d]pyrimidine-2-carbonitrile]	< 1000 nM	< 1000 nM	< 400 nM	
C[C@@H](Nc1nc(Cl)nc2c1CN(C(=O)N1CCOc3ncccc31)C2)c1cccc(C(F)(F)F)c1 [Example 366]	< 1000 nM	< 1000 nM	< 400 nM	
C[C@@H](Nc1nc(Cl)nc2c1CN(C(=O)c1ccnnc1)C2)c1cc(N)cc(C(F)(F)F)c1 [Example 78]	< 1000 nM	< 1000 nM	< 400 nM	
C[C@@H](Nc1nc(Cl)nc2c1C[C@@H](N1CCOCC1)CC2)c1cccc(C(F)(F)CO)c1 [Example 436]	< 1000 nM	< 1000 nM	< 400 nM	
C[C@@H](Nc1nc(CN)nc2c1CN(C(=O)N1CCOCC1)C2)c1cc(N)cc(C(F)(F)F)c1 [Example 130, N-[(1R)-1-[3-amino-5-(trifluoromethyl)phenyl]ethyl]-2-(aminomethyl)-6-(morpholine-4-carbonyl)-5H,6H,7H-pyrrolo[3,4-d]pyrimidin-4-amine]	< 1000 nM	> 1000 nM	< 400 nM	
COC1(C(=O)N2Cc3nc(Cl)nc(N[C@H](C)c4cccc(C(F)(F)F)c4)c3C2)CCNCC1 [Example 315]	< 1000 nM	< 1000 nM	< 400 nM	
CC(=O)NC1(C(=O)N2Cc3nc(Cl)nc(N[C@H](C)c4cccc(C(F)F)c4F)c3C2)CCCCC1 [Example 332]	< 1000 nM	> 1000 nM	> 400 nM	
C[C@@H](Nc1nc(Cl)nc2c1CN(C(=O)N1CCOCC1)C2)c1cccc(C(F)(F)C2CCCO2)c1 (stereo partly drawn) [Example 491]	< 1000 nM	< 1000 nM	< 400 nM	
C[C@@H](Nc1nc(Cl)nc2c1CN(C(=O)[C@@H]1C[C@H]1C#N)CC2)c1cc(N)cc(C(F)(F)F)c1 [Example 223]	< 1000 nM	< 1000 nM	< 400 nM	
C[C@@H](Nc1nc(Cl)nc2c1CN(S(=O)(=O)C1CCNCC1)CC2)c1cc(N)cc(C(F)(F)F)c1 [Example 450]	< 1000 nM	< 1000 nM	< 400 nM	
C[C@@H](Nc1nc(Cl)nc2c1CN(C(=O)N1CCOCC1)C2)c1cccc(C(F)F)c1Br [Example 528, N-[(1R)-1-[2-bromo-3-(difluoromethyl)phenyl]ethyl]-2-chloro-6-(morpholine-4-carbonyl)-5H,6H,7H-pyrrolo[3,4-d]pyrimidin-4-amine]	< 1000 nM		> 400 nM	< 1000 nM
C[C@@H](Nc1nc(Cl)nc2c1CN(S(=O)(=O)C1CCOCC1)CC2)c1cc(N)cc(C(F)(F)F)c1 [Example 455]	< 1000 nM	< 1000 nM	< 400 nM	
C[C@@H](Nc1nc(Cl)nc2c1CN(C(=O)N1CCOCC1)C2)c1cccc(C(F)(F)C2CN(C)CCO2)c1 (stereo partly drawn) [Example 485, 2-chloro-N-[(1R)-1-{3-[difluoro(4-methylmorpholin-2-yl)methyl]phenyl}ethyl]-6-(morpholine-4-carbonyl)-5H,6H,7H-pyrrolo[3,4-d]pyrimidin-4-amine]	< 1000 nM	< 1000 nM	< 400 nM	
COCC1(S(=O)(=O)N2CCc3nc(Cl)nc(N[C@H](C)c4cc(N)cc(C(F)(F)F)c4)c3C2)CCC1 [Example 448, N-[(1R)-1-[3-amino-5-(trifluoromethyl)phenyl]ethyl]-2-chloro-6-{[1-(methoxymethyl)cyclobutyl]sulfonyl}-5H,6H,7H,8H-pyrido[4,3-d]pyrimidin-4-amine]	< 1000 nM	> 1000 nM	< 400 nM	
C[C@@H](Nc1nc(Cl)nc2c1CN(C(=O)C1CCNCC1(F)F)C2)c1cccc(C(F)F)c1F (stereo partly drawn) [Example 311]	< 1000 nM	< 1000 nM	< 400 nM	
C[C@@H](Nc1nc(Cl)nc2c1CN(C(=O)C1(O)COC1)C2)c1cccc(C(F)(F)F)c1 [Example 279]	< 1000 nM	< 1000 nM	> 400 nM	
C[C@@H](Nc1nc(C2CNC2)nc2c1CN(C(=O)N1CCOCC1)C2)c1cccc(C(F)F)c1F [Example 446, [2-(azetidin-3-yl)-4-[[(1R)-1-[3-(difluoromethyl)-2-fluoro-phenyl]ethyl]amino]-5,7-dihydropyrrolo[3,4-d]pyrimidin-6-yl]-morpholino-methanone]	< 1000 nM	> 1000 nM	< 400 nM	

SMILES	IC50 [1]	IC50 [2, 4]	Kd [3]	IC50 ([2]; PC-9, 1 h)
COC1(C(=O)N2Cc3nc(Cl)nc(N[C@H](C)c4cc(N)cc(C(F)(F)F)c4)c3C2)CCOCC1 [Example 93]	< 1000 nM	< 1000 nM	< 400 nM	
C[C@@H](Nc1nc(CO)nc2c1CN(C(=O)N1CCOCC1)C2)c1cccc(C(F)F)c1F [Example 348, (R)-(4-((1-(3-(difluoromethyl)-2-fluorophenyl)ethyl)amino)-2-(hydroxymethyl)-5,7-dihydro-6H-pyrrolo[3,4-d]pyrimidin-6-yl)(morpholino)methanone]	< 1000 nM	> 1000 nM	< 400 nM	
C[C@@H](Nc1nc(Cl)nc2c1CN(C(=O)N1CC3(CNC3)C1)C2)c1cccc(C(F)F)c1F [Example 393]	< 1000 nM	> 1000 nM	< 400 nM	
C[C@@H](Nc1nc(Cl)nc2c1CN(C(=O)N1CC3CCC(C1)N3)C2)c1cccc(C(F)F)c1F [Example 388]	< 1000 nM	< 1000 nM	< 400 nM	
C[C@@H](Nc1nc(Cl)nc2c1CN(C(=O)N1C[C@H]3CN(C)C[C@H]3C1)C2)c1cccc(C(F)F)c1F [Example 414]	< 1000 nM	< 1000 nM	< 400 nM	
C[C@@H](Nc1nc(Cl)nc2c1CN(S(=O)(=O)N1CCOCC1)CC2)c1cccc(C(F)(F)CO)c1 [Example 181]	< 1000 nM	< 1000 nM	< 400 nM	
C[C@@H](Nc1nc(Cl)nc2c1CN(C(=O)CN1CCOCC1)C2)c1cccc(C(F)F)c1F [Example 292]	< 1000 nM	< 1000 nM	< 400 nM	
C[C@@H](Nc1nc(Cl)nc2c1CC(N1CC3(COC3)C1)CC2)c1cccc(C(F)(F)CO)c1 (stereo partly drawn) [Example 438]	< 1000 nM	< 1000 nM	< 400 nM	
C[C@@H](Nc1nc(Cl)nc2c1CN(C(=O)C1CCNCC1F)C2)c1cccc(C(F)F)c1F (stereo partly drawn) [Example 305]	< 1000 nM	> 1000 nM	< 400 nM	
C[C@@H](Nc1nc(Cl)nc2c1CN(C(=O)c1cccc(OC3CCOCC3)n1)C2)c1cc(N)cc(C(F)(F)F)c1 [Example 83]	> 1000 nM	< 1000 nM	> 400 nM	
C[C@@H](Nc1nc(Cl)nc2c1CN(C(=O)N1CCNC(C(F)(F)F)C1)C2)c1cc(N)cc(C(F)(F)F)c1 (stereo partly drawn) [Example 359]	< 1000 nM	< 1000 nM	< 400 nM	
C[C@@H](Nc1nc(Cl)nc2c1CN(C(=O)N1CC3CCC(C1)N3C1COC1)C2)c1cccc(C(F)F)c1F [Example 423]	< 1000 nM	< 1000 nM	< 400 nM	
COc1ccc(S(=O)(=O)N2CCc3nc(Cl)nc(N[C@H](C)c4cc(N)cc(C(F)(F)F)c4)c3C2)cc1 [Example 454]	< 1000 nM	< 1000 nM	< 400 nM	
CC(Nc1nc(Cl)nc2c1CN(C(=O)N1CCOCC1)C2)c1cc(O)cc(C(F)(F)F)c1 (stereo not drawn) [Example 40, [2-chloro-4-[1-[3-hydroxy-5-(trifluoromethyl)phenyl]ethylamino]-5,7-dihydropyrrolo[3,4-d]pyrimidin-6-yl]-morpholino-methanone]	> 1000 nM	> 1000 nM	> 400 nM	
C[C@@H](Nc1nc(Cl)nc2c1CN(C(=O)N1C[C@H]3CNCC[C@H]3C1)C2)c1cccc(C(F)(F)F)c1 [Example 378]	< 1000 nM	> 1000 nM	< 400 nM	
C[C@@H](Nc1nc(Cl)nc2c1CN(C(=O)N1CCOCC1)C2)c1cccc(C(F)(F)C2CNCCO2)c1 (stereo partly drawn) [Example 484, 2-chloro-N-[(1R)-1-{3-[difluoro(morpholin-2-yl)methyl]phenyl}ethyl]-6-(morpholine-4-carbonyl)-5H,6H,7H-pyrrolo[3,4-d]pyrimidin-4-amine]	< 1000 nM		< 400 nM	< 1000 nM
C[C@@H](Nc1nc(Cl)nc2c1CN(C(=O)C1(C#N)CCOCC1)C2)c1cc(N)cc(C(F)(F)F)c1 [Example 255]	< 1000 nM	< 1000 nM	< 400 nM	
